# Assay results published in patent US20260070917A1, “CYCLIN DEPENDENT KINASE DEGRADERS AND METHODS OF USE THEREOF” (Differentiated Therapeutics Inc, priority 2023, published 2026).
# Legend:
# Type in all cases: cell-based
# CDK9 = biological target: T1, CDK9 (Homo sapiens, UniProt P50750); experiment: HiBit Assay Protocol for CDK9 (HIBIT protein quantification, degradation); conditions: HEK293-CDK9-Hibit cells, compound treatment for 6 hours; for Dmax: 6 h, read-out: CDK9 HIBIT Protein Quantification Maximum
# T1 construct: host or cells: HEK293-CDK9-Hibit
# How it was run: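 Degradation read-out: luminescence after lytic HiBiT/LgBiT detection in HEK293-CDK9-HiBiT cells exposed 6 h to 10-point, 3-fold compound dilutions. Signal scaled between 0.1% DMSO-treated cells and medium alone; DC50 fitted from the curve.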
# CDK2 = biological target: T2, CDK2 (Homo sapiens, UniProt P24941); experiment: HiBit Assay Protocol for CDK2 (HIBIT protein quantification, degradation); conditions: HEK293-CDK2-Hibit cells, compound treatment for 6 hours; for DC50: ABS DC50
# T2 construct: host or cells: HEK293-CDK2-Hibit
# How it was run: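 DC50 comes from a fitted curve of remaining CDK2-HiBiT luminescence, referenced to DMSO-treated cells and medium-only wells. HEK293-CDK2-HiBiT cells, plated the previous night, received compounds in a 10-point, 3-fold series for 6 h before lysis with LgBiT-containing Nano-Glo HiBiT reagent.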
# CCNE1 = biological target: T3, CCNE1 (Homo sapiens, UniProt P24864); experiment: HiBit Assay Protocol for CCNE1 (HIBIT protein quantification, degradation); conditions: HEK293-CCNE1-Hibit cells, compound treatment for 6 hours
# T3 construct: host or cells: HEK293-CCNE1-Hibit
# How it was run: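 Degradation readout: lytic Nano-Glo HiBiT luminescence after 6 h exposure of HEK293-CCNE1-HiBiT cells to 10-point, 3-fold serial dilutions. Signal was scaled between medium-only and DMSO-treated wells, and DC50 came from curve fits.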
# T1 sequence (P50750 whole entry): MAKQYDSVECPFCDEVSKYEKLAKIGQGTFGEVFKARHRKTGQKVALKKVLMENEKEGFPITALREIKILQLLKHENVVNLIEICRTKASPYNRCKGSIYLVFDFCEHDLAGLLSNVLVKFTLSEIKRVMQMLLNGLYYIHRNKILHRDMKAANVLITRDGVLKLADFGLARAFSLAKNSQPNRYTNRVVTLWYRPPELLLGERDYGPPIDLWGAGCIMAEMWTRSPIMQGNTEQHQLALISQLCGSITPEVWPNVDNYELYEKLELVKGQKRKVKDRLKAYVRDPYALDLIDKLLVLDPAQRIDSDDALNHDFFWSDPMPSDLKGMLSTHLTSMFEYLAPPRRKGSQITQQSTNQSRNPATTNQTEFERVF
# T3 sequence (P24864 whole entry): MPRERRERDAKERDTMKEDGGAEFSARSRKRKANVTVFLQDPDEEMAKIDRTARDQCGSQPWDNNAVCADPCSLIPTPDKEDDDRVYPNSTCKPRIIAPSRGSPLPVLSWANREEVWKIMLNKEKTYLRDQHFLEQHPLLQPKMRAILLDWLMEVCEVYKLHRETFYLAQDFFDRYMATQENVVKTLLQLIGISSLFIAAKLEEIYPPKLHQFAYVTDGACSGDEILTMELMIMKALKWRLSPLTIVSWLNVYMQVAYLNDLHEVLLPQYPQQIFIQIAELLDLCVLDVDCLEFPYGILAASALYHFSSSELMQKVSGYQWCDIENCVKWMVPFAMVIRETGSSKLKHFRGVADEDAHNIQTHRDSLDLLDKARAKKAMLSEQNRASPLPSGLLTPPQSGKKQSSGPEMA
structure (smiles),measurement,setting,value
CC1CCCC1N1C(=O)C2(CC2)c2cnc(NC3CCN(S(=O)(=O)C4CCN(C(=O)CCCCCCCCCc5ccc6c(c5)n(C)c(=O)n6C5CCC(=O)NC5=O)C4)CC3)nc21 (centres unmarked) [Compound 90],Dmax,CDK9,45%
same,CDK2 HIBIT Protein Quantification Maximum,CDK2,67%
same,DC50,CDK2,5 nM
same,CCNE1 HIBIT Protein Quantification Maximum,CCNE1,34%
CC1CCCC1N1C(=O)C2(CC2)c2cnc(NC3CCN(S(=O)(=O)N4CC(N(C)C(=O)CCCCc5cccc6c5n(C)c(=O)n6C5CCC(=O)NC5=O)C4)CC3)nc21 (centres unmarked) [Compound 91],Dmax,CDK9,37%
same,CDK2 HIBIT Protein Quantification Maximum,CDK2,64%
same,DC50,CDK2,6 nM
same,CCNE1 HIBIT Protein Quantification Maximum,CCNE1,25%
CC1CCCC1N1C(=O)C2(CC2)c2cnc(NC3CCN(S(=O)(=O)N4CC5CN(C(=O)CCCCc6cccc7c6n(C)c(=O)n7C6CCC(=O)NC6=O)CC5C4)CC3)nc21 (centres unmarked) [Compound 92],Dmax,CDK9,26%
same,CDK2 HIBIT Protein Quantification Maximum,CDK2,39%
same,CCNE1 HIBIT Protein Quantification Maximum,CCNE1,7%
CC1CCCC1N1C(=O)C2(CC2)c2cnc(NC3CCN(S(=O)(=O)N4CCC5(CCCN5C(=O)CCCCc5cccc6c5n(C)c(=O)n6C5CCC(=O)NC5=O)C4)CC3)nc21 (centres unmarked) [Compound 94],Dmax,CDK9,51%
same,DC50,CDK9; ABS DC50,2 nM
same,CDK2 HIBIT Protein Quantification Maximum,CDK2,63%
same,DC50,CDK2,16 nM
same,CCNE1 HIBIT Protein Quantification Maximum,CCNE1,39%
CC1CCCC1N1C(=O)C2(CC2)c2cnc(NC3CCN(S(=O)(=O)N4CC5(CCCCN5C(=O)CCCCc5cccc6c5n(C)c(=O)n6C5CCC(=O)NC5=O)C4)CC3)nc21 (centres unmarked) [Compound 95],Dmax,CDK9,7%
same,CDK2 HIBIT Protein Quantification Maximum,CDK2,65%
same,DC50,CDK2,11 nM
same,CCNE1 HIBIT Protein Quantification Maximum,CCNE1,15%
CC1CCCC1N1C(=O)C2(CC2)c2cnc(NC3CCN(S(=O)(=O)N4CC5(CCCN(C(=O)CCCCc6cccc7c6n(C)c(=O)n7C6CCC(=O)NC6=O)C5)C4)CC3)nc21 (centres unmarked) [Compound 96],Dmax,CDK9,26%
same,CDK2 HIBIT Protein Quantification Maximum,CDK2,46%
same,CCNE1 HIBIT Protein Quantification Maximum,CCNE1,46%
CC1CCCC1N1C(=O)C2(CC2)c2cnc(NC3CCN(S(=O)(=O)N4CC5(CN(C(=O)CCCCc6cccc7c6n(C)c(=O)n7C6CCC(=O)NC6=O)C5)C4)CC3)nc21 (centres unmarked) [Compound 97],Dmax,CDK9,46%
same,CDK2 HIBIT Protein Quantification Maximum,CDK2,41%
same,CCNE1 HIBIT Protein Quantification Maximum,CCNE1,14%
CC1CCCC1N1C(=O)C2(CC2)c2cnc(NC3CCN(S(=O)(=O)N4CC5CN(C(=O)CCCCc6cccc7c6n(C)c(=O)n7C6CCC(=O)NC6=O)CC54)CC3)nc21 (centres unmarked) [Compound 99],Dmax,CDK9,11%
same,CDK2 HIBIT Protein Quantification Maximum,CDK2,31%
same,CCNE1 HIBIT Protein Quantification Maximum,CCNE1,1%
CC1CCCC1N1C(=O)C2(CC2)c2cnc(NC3CCN(S(=O)(=O)N4CCCN(C(=O)CCCCc5cccc6c5n(C)c(=O)n6C5CCC(=O)NC5=O)CC4)CC3)nc21 (centres unmarked) [Compound 100],Dmax,CDK9,34%
same,CDK2 HIBIT Protein Quantification Maximum,CDK2,62%
same,DC50,CDK2,6 nM
same,CCNE1 HIBIT Protein Quantification Maximum,CCNE1,31%
CC1CCCC1N1C(=O)C2(CC2)c2cnc(NC3CCN(S(=O)(=O)C4CCCN(C(=O)CCCCc5cccc6c5n(C)c(=O)n6C5CCC(=O)NC5=O)C4)CC3)nc21 (centres unmarked) [Compound 101],Dmax,CDK9,23%
same,CDK2 HIBIT Protein Quantification Maximum,CDK2,38%
same,CCNE1 HIBIT Protein Quantification Maximum,CCNE1,47%
CC1CCCC1N1C(=O)C2(CC2)c2cnc(NC3CCN(S(=O)(=O)N4CC5CN(C(=O)CCCCc6ccc7c(c6)n(C)c(=O)n7C6CCC(=O)NC6=O)CC5C4)CC3)nc21 (centres unmarked) [Compound 103],Dmax,CDK9,0%
same,CDK2 HIBIT Protein Quantification Maximum,CDK2,31%
same,CCNE1 HIBIT Protein Quantification Maximum,CCNE1,7%
CC1CCCC1N1C(=O)C2(CC2)c2cnc(NC3CCN(S(=O)(=O)N4CCCC45CCN(C(=O)CCCCc4ccc6c(c4)n(C)c(=O)n6C4CCC(=O)NC4=O)C5)CC3)nc21 (centres unmarked) [Compound 104],Dmax,CDK9,11%
same,CDK2 HIBIT Protein Quantification Maximum,CDK2,25%
same,CCNE1 HIBIT Protein Quantification Maximum,CCNE1,6%
CC1CCCC1N1C(=O)C2(CC2)c2cnc(NC3CCN(S(=O)(=O)N4CCC5(CCCN5C(=O)CCCCc5ccc6c(c5)n(C)c(=O)n6C5CCC(=O)NC5=O)C4)CC3)nc21 (centres unmarked) [Compound 105],Dmax,CDK9,36%
same,CDK2 HIBIT Protein Quantification Maximum,CDK2,40%
same,CCNE1 HIBIT Protein Quantification Maximum,CCNE1,15%
CC1CCCC1N1C(=O)C2(CC2)c2cnc(NC3CCN(S(=O)(=O)N4CC5(CCCCN5C(=O)CCCCc5ccc6c(c5)n(C)c(=O)n6C5CCC(=O)NC5=O)C4)CC3)nc21 (centres unmarked) [Compound 106],Dmax,CDK9,12%
same,CDK2 HIBIT Protein Quantification Maximum,CDK2,32%
same,CCNE1 HIBIT Protein Quantification Maximum,CCNE1,3%
CC1CCCC1N1C(=O)C2(CC2)c2cnc(NC3CCN(S(=O)(=O)N4CC5(CCCN(C(=O)CCCCc6ccc7c(c6)n(C)c(=O)n7C6CCC(=O)NC6=O)C5)C4)CC3)nc21 (centres unmarked) [Compound 107],Dmax,CDK9,22%
same,CDK2 HIBIT Protein Quantification Maximum,CDK2,28%
same,CCNE1 HIBIT Protein Quantification Maximum,CCNE1,25%
CC1CCCC1N1C(=O)C2(CC2)c2cnc(NC3CCN(S(=O)(=O)N4CC5(CN(C(=O)CCCCc6ccc7c(c6)n(C)c(=O)n7C6CCC(=O)NC6=O)C5)C4)CC3)nc21 (centres unmarked) [Compound 108],Dmax,CDK9,4%
same,CDK2 HIBIT Protein Quantification Maximum,CDK2,42%
same,CCNE1 HIBIT Protein Quantification Maximum,CCNE1,16%
CC1CCCC1N1C(=O)C2(CC2)c2cnc(NC3CCN(S(=O)(=O)N4CC5(CCN(C(=O)CCCCc6ccc7c(c6)n(C)c(=O)n7C6CCC(=O)NC6=O)CC5)C4)CC3)nc21 (centres unmarked) [Compound 109],Dmax,CDK9,47%
same,CDK2 HIBIT Protein Quantification Maximum,CDK2,57%
same,DC50,CDK2,4 nM
same,CCNE1 HIBIT Protein Quantification Maximum,CCNE1,22%
CC1CCCC1N1C(=O)C2(CC2)c2cnc(NC3CCN(S(=O)(=O)N4CC5C4CCN5C(=O)CCCCc4ccc5c(c4)n(C)c(=O)n5C4CCC(=O)NC4=O)CC3)nc21 (centres unmarked) [Compound 110],Dmax,CDK9,14%
same,CDK2 HIBIT Protein Quantification Maximum,CDK2,20%
same,CCNE1 HIBIT Protein Quantification Maximum,CCNE1,5%
CC1CCCC1N1C(=O)C2(CC2)c2cnc(NC3CCN(S(=O)(=O)N4CC5CN(C(=O)CCCCc6ccc7c(c6)n(C)c(=O)n7C6CCC(=O)NC6=O)CC54)CC3)nc21 (centres unmarked) [Compound 111],Dmax,CDK9,25%
same,CDK2 HIBIT Protein Quantification Maximum,CDK2,13%
same,CCNE1 HIBIT Protein Quantification Maximum,CCNE1,9%
CC1CCCC1N1C(=O)C2(CC2)c2cnc(NC3CCN(S(=O)(=O)N4CCC5(CCN(C(=O)CCCCc6ccc7c(c6)n(C)c(=O)n7C6CCC(=O)NC6=O)C5)C4)CC3)nc21 (centres unmarked) [Compound 112],Dmax,CDK9,28%
same,CDK2 HIBIT Protein Quantification Maximum,CDK2,22%
same,CCNE1 HIBIT Protein Quantification Maximum,CCNE1,14%
CC1CCCC1N1C(=O)C2(CC2)c2cnc(NC3CCN(S(=O)(=O)N4CCCN(C(=O)CCCCc5ccc6c(c5)n(C)c(=O)n6C5CCC(=O)NC5=O)CC4)CC3)nc21 (centres unmarked) [Compound 113],Dmax,CDK9,6%
same,CDK2 HIBIT Protein Quantification Maximum,CDK2,21%
same,CCNE1 HIBIT Protein Quantification Maximum,CCNE1,28%
"Cn1nc(N2CCC(=O)NC2=O)c2ccc(C3CCN(Cc4cccc(S(=O)(=O)N5CCC(Nc6ncc7c(n6)N([C@@H]6CCC[C@@H](O)C6)C(=O)C76CC6)CC5)c4)CC3)cc21 [Compound 118, 1-(6-(1-(3-((4-((7′-((1R,3R)-3-hydroxycyclohexyl)-6′-oxo-6′,7′-dihydrospiro[cyclopropane-1,5′-pyrrolo[2,3-d]pyrimidin]-2′-yl)amino)piperidin-1-yl)sulfonyl)benzyl)piperidin-4-yl)-1-methyl-1H-indazol-3-yl)dihydropyrimidine-2,4(1H,3H)-dione]",Dmax,CDK9,14%
same,CDK2 HIBIT Protein Quantification Maximum,CDK2,76%
same,DC50,CDK2,7 nM
same,CCNE1 HIBIT Protein Quantification Maximum,CCNE1,44%
